Measurements taken from US20230181614A1, “ADMINISTRATION OF CITICOLINE TO IMPROVE COGNITIVE PERFORMANCE, ATTENTIONAL PERFORMANCE, AND MOTOR FUNCTION” (KYOWA HAKKO BIO CO., LTD., priority 2014, published 2023).

Columns and labels:
[1] = tested on: Healthy subjects, ages 13-18; assay: Continuous Performance Test (CPT); type: in vivo, human; conditions: for CPT Commissions V1, Mean / CPT Omissions V1, Mean / CPT Hit Reaction Time V1, Mean: Visit 1
Text: Study participants were screened by telephone prior to study enrollment. Healthy subjects, ages 13-18, with no significant medical conditions and no history of co-morbid psychiatric disorder, current Axis I or II diagnosis, or previous participation in a pharmacotherapeutic trial, were selected. Use of any psychotropic medication or any previous head injury resulting in loss of consciousness for 5 or more minutes were used as exclusion criteria. While no participant met criteria for a neuropsychiatric disorder at enrollment, clinical assessments were still completed throughout the study to evaluate changes in mood state. In addition, self-reports of sleep habits, lifestyle, and exercise routines were also administered at baseline as well as at each study visit to assess changes in health habits during study participation. Following the completion of Visit 1 assessment, participants were given their 28-day supply of citicoline (250 mg or 500 mg) or placebo, which was randomly assigned. They were instructed to take one capsule a day every day for the next 28 days. Visit 2 occurred fourteen days after Visit 1. At Visit 2, the remaining study pills were counted and participant dosage calendars were checked to ensure compliance with the protocol. Additional neuropsychological measures and clinical assessments were administered during this visit. Participants returned for Visit 3 fourteen days later, on the 28th day of their study participation. The pill bottle and the dosage calendar were collected from each participant. Urine and blood were again obtained. Participants also participated in similar clinical and neuropsychological testing and clinical measures that were given during visit 1. The CPT is a test of sustained attention that has been adapted for computerized administration. The test requires participants to attend vigilantly to a series of target and distracter stimuli for a 14-minute duration. […] The CPT was administered at all three visits.

[2] = tested on: Healthy subjects, ages 13-18; assay: Ruff 2 & 7 test (visual attention); type: in vivo, human; conditions: for Ruff 2 & 7 Accuracy Difference Score V1 (Mean) / Ruff 2 & 7 Speed Difference Score V1 (Mean) / Ruff 2 & 7 Total Accuracy T Score V1 (Mean) / Ruff 2 & 7 Total Difference Score V1 (Mean) / Ruff 2 & 7 Total Speed T Score V1 (Mean): Visit 1; for Ruff 2 & 7 Accuracy Difference Score V3 (Mean) / Ruff 2 & 7 Speed Difference Score V3 (Mean) / Ruff 2 & 7 Total Accuracy T Score V3 (Mean) / Ruff 2 & 7 Total Difference Score V3 (Mean) / Ruff 2 & 7 Total Speed T Score V3 (Mean): Visit 3
Text: Study participants were screened by telephone prior to study enrollment. Healthy subjects, ages 13-18, with no significant medical conditions and no history of co-morbid psychiatric disorder, current Axis I or II diagnosis, or previous participation in a pharmacotherapeutic trial, were selected. Use of any psychotropic medication or any previous head injury resulting in loss of consciousness for 5 or more minutes were used as exclusion criteria. While no participant met criteria for a neuropsychiatric disorder at enrollment, clinical assessments were still completed throughout the study to evaluate changes in mood state. In addition, self-reports of sleep habits, lifestyle, and exercise routines were also administered at baseline as well as at each study visit to assess changes in health habits during study participation. Following the completion of Visit 1 assessment, participants were given their 28-day supply of citicoline (250 mg or 500 mg) or placebo, which was randomly assigned. They were instructed to take one capsule a day every day for the next 28 days. Visit 2 occurred fourteen days after Visit 1. At Visit 2, the remaining study pills were counted and participant dosage calendars were checked to ensure compliance with the protocol. Additional neuropsychological measures and clinical assessments were administered during this visit. Participants returned for Visit 3 fourteen days later, on the 28th day of their study participation. The pill bottle and the dosage calendar were collected from each participant. Urine and blood were again obtained. Participants also participated in similar clinical and neuropsychological testing and clinical measures that were given during visit 1. The Ruff 2 & 7 measures two aspects of visual attention: sustained attention and selective attention. There are a series of 20 trials involving visual searching in which the respondent detects and marks through all given stimuli the digits “2” and “7”. In the 10 Automatic Detection trials, the target digits are embedded among alphabetical letters that serve as distractors. In the 10 Controlled Search trials, the target digits are embedded among other numbers that serve as distractors. Correct hits and errors are counted for each trial and serve as the basis for scoring the test. Accuracy scores evaluate the number of targets identified in relation to the number of possible targets. The Ruff 2 & 7 was administered at all three visits.

[3] = 250 mg/day group, Visit difference score
[4] = 250 mg/day group, Visit 3, in ms (unit assumed)
[5] = 250 mg/day group, visit difference score V3-V1
[6] = 500 mg/day group, Visit difference score
[7] = 500 mg/day group, visit difference score V3-V1

C[N+](C)(C)CCOP(=O)(O)OP(=O)([O-])OC[C@H]1O[C@@H](n2ccc(N)nc2=O)[C@H](O)[C@@H]1O [citicoline, Cytidine 5′-diphosphocholine]
CPT Commissions V1, Mean ([1]; 250 mg/day group): 18.22
CPT Omissions V1, Mean ([1]; 250 mg/day group): 9.59
CPT Hit Reaction Time V1, Mean ([1]; 250 mg/day group, in ms (unit assumed)): 362.62
V3-V1 CPT Commissions, Mean [1, 3]: -1.26
V3-V1 CPT Omissions, Mean [1, 3]: 4.93
V3-V1 CPT Hit Reaction Time, Mean ([1]; 250 mg/day group, Visit difference score, in ms (unit assumed)): 34.57
CPT Commissions V3, Mean ([1]; 250 mg/day group, Visit 3): 16.96
CPT Omissions V3, Mean ([1]; 250 mg/day group, Visit 3): 14.52
V3 CPT Commissions (Mean) ([1]; 250 mg/day group, Visit 3): 16.96
V3 CPT Omissions (Mean) ([1]; 250 mg/day group, Visit 3): 14.52
CPT Hit Reaction Time V3, Mean [1, 4]: 397.19
V3 CPT Hit Reaction Time (Mean) [1, 4]: 397.19
V3-V1 CPT Commissions, Mean [1, 5]: -1.26
V3-V1 CPT Omissions, Mean [1, 5]: 4.93
V3-V1 CPT Hit Reaction Time, Mean ([1]; 250 mg/day group, visit difference score V3-V1, in ms (unit assumed)): 34.57
CPT Commissions V1, Mean ([1]; 500 mg/day group): 18.79
CPT Omissions V1, Mean ([1]; 500 mg/day group): 8.42
CPT Hit Reaction Time V1, Mean ([1]; 500 mg/day group, in ms (unit assumed)): 363.58
CPT Hit Reaction Time V3, Mean ([1]; 500 mg/day group, Visit 3, in ms (unit assumed)): 391.30
V3-V1 CPT Commissions, Mean [1, 6]: -3.88
V3-V1 CPT Omissions, Mean [1, 6]: 5.33
V3-V1 CPT Hit Reaction Time, Mean ([1]; 500 mg/day group, Visit difference score, in ms (unit assumed)): 27.71
CPT Commissions V3, Mean ([1]; 500 mg/day group, Visit 3): 14.92
CPT Omissions V3, Mean ([1]; 500 mg/day group, Visit 3): 13.75
Ruff 2 & 7 Accuracy Difference Score V1 (Mean) ([2]; 250 mg/day group): 0.02
Ruff 2 & 7 Speed Difference Score V1 (Mean) ([2]; 250 mg/day group): 0.01
Ruff 2 & 7 Total Accuracy T Score V1 (Mean) ([2]; 250 mg/day group): 47.41
Ruff 2 & 7 Total Difference Score V1 (Mean) ([2]; 250 mg/day group): 0.01
Ruff 2 & 7 Total Speed T Score V1 (Mean) ([2]; 250 mg/day group): 45.74
Ruff 2 & 7 Accuracy Difference Score V3 (Mean) ([2]; 250 mg/day group): 0.01
Ruff 2 & 7 Speed Difference Score V3 (Mean) ([2]; 250 mg/day group): 0.01
Ruff 2 & 7 Total Accuracy T Score V3 (Mean) ([2]; 250 mg/day group): 53.00
Ruff 2 & 7 Total Difference Score V3 (Mean) ([2]; 250 mg/day group): 0.02
Ruff 2 & 7 Total Speed T Score V3 (Mean) ([2]; 250 mg/day group): 54.85
Ruff 2 & 7 Speed Difference Score V3-V1 (Mean) [2, 5]: 0.00
Ruff 2 & 7 Total Accuracy T Score V3-V1 (Mean) [2, 5]: 5.59
Ruff 2 & 7 Total Difference Score V3-V1 (Mean) [2, 5]: 0.00
Ruff 2 & 7 Total Speed T Score V3-V1 (Mean) [2, 5]: 9.11
Ruff 2 & 7 Accuracy Difference Score V1 (Mean) ([2]; 500 mg/day group): 0.02
Ruff 2 & 7 Speed Difference Score V1 (Mean) ([2]; 500 mg/day group): 0.01
Ruff 2 & 7 Total Accuracy T Score V1 (Mean) ([2]; 500 mg/day group): 42.71
Ruff 2 & 7 Total Difference Score V1 (Mean) ([2]; 500 mg/day group): 0.02
Ruff 2 & 7 Total Speed T Score V1 (Mean) ([2]; 500 mg/day group): 44.33
Ruff 2 & 7 Accuracy Difference Score V3 (Mean) ([2]; 500 mg/day group): 0.00
Ruff 2 & 7 Speed Difference Score V3 (Mean) ([2]; 500 mg/day group): 0.02
Ruff 2 & 7 Total Accuracy T Score V3 (Mean) ([2]; 500 mg/day group): 49.88
Ruff 2 & 7 Total Difference Score V3 (Mean) ([2]; 500 mg/day group): 0.02
Ruff 2 & 7 Total Speed T Score V3 (Mean) ([2]; 500 mg/day group): 53.75
Ruff 2 & 7 Accuracy Difference Score V3-V1 (Mean) [2, 7]: -0.02
Ruff 2 & 7 Speed Difference Score V3-V1 (Mean) [2, 7]: 0.01
Ruff 2 & 7 Total Accuracy T Score V3-V1 (Mean) [2, 7]: 7.17
Ruff 2 & 7 Total Difference Score V3-V1 (Mean) [2, 7]: 0.01
Ruff 2 & 7 Total Speed T Score V3-V1 (Mean) [2, 7]: 9.42
